Assay results published in ChEMBL document CHEMBL5724914, “Linking interpersonal differences in gut microbiota composition and drug biotransformation activity” (2024).

Legend:
[1] = human gut metagenome, 24 h, 2 µM
[2] = human gut metagenome, 24 h, 2 µM; remark: listed apart in the source
[3] = human gut metagenome, 24 h, 2 µM; remark: listed apart in the source
[4] = (§1) The drug is tested on WLS-170 corresponding to human gut metagenome with ENA study accession number: PRJEB37062 and ENA sample accession number: ERS12561762 for biotransformation under anaerobic condition. The drug concentrations were measured over 9 timepoints collected between 0 and 24 hours of incubation by liquid-chromatography-coupled mass spectrometry (LC–MS); conditions: 2 µM
[5] = human gut metagenome, 24 h, 2 µM; remark: listed apart in the source
[6] = human gut metagenome, 24 h, 2 µM; remark: listed apart in the source
[7] = human gut metagenome, 24 h, 2 µM; remark: listed apart in the source
[8] = as §1, with “WLS-370” for “WLS-170”, “ERS12561793” for “ERS12561762”; conditions: 2 µM
[9] = human gut metagenome, 24 h, 2 µM; remark: listed apart in the source
[10] = human gut metagenome, 24 h, 2 µM; remark: listed apart in the source
[11] = human gut metagenome, 24 h, 2 µM; remark: listed apart in the source
[12] = as §1, with “WLS-098” for “WLS-170”, “ERS12561754” for “ERS12561762”; conditions: 2 µM
[13] = human gut metagenome, 24 h, 2 µM; remark: listed apart in the source
Note: call rule not given here.

Bacterial Biotransformation [1]: Compound NOT metabolized | Bacterial Biotransformation [2]: Compound NOT metabolized | Bacterial Biotransformation [3]: Compound metabolized | Bacterial Biotransformation [4]: Compound metabolized | Bacterial Biotransformation [5]: Compound metabolized | Bacterial Biotransformation [6]: Compound NOT metabolized | Bacterial Biotransformation [7]: Compound metabolized | Bacterial Biotransformation [8]: Compound NOT metabolized | Bacterial Biotransformation [9]: Compound NOT metabolized | Bacterial Biotransformation [10]: Compound NOT metabolized | Bacterial Biotransformation [11]: Compound NOT metabolized | Bacterial Biotransformation [12]: Compound NOT metabolized | Bacterial Biotransformation [13]: Compound NOT metabolized
SMILES: CN(C)CCOC(c1ccc(Cl)cc1)c1ccccn1.O=C(O)/C=C\C(=O)O (stereo not drawn) [CARBINOXAMINE MALEATE]
